The source of these data is patent US7091199B1, “Thienoisoxazole phenoxy unsubstituted ethyl and propyl derivatives useful as d4 antagonists” (Aventis Pharmaceuticals Inc., priority 1999, dated 2006).

Molecules are shown by their SMILES. Structures can show the parent of a compound that is named as a salt.

The target in the first experiment is T1, human D4 receptor (D4.2 sub-type) (Homo sapiens, UniProt P21917, DEL271-302).
T1 sequence (P21917 with tags, fused parts or gaps DEL271-302): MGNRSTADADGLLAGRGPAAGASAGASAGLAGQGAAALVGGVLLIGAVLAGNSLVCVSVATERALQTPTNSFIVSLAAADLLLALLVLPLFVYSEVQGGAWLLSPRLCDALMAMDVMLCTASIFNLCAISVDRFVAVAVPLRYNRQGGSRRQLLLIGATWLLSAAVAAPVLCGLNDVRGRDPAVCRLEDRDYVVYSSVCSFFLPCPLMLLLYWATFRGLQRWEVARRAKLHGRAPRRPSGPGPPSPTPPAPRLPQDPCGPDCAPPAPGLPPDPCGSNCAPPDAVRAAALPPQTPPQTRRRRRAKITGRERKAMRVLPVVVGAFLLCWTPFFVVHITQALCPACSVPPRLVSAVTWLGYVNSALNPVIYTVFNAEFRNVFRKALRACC
The experiment can be described thus: D4 receptor binding assay (3H-spiperone displacement). Particulars: 3H-spiperone 0.25 nM, HEK cell membranes, human D4.2; read-out: D4 RBA Ki. How it is done:
D4 receptor-binding affinities of the compounds were evaluated according to their ability to reduce binding of ^3H-spiperone as compared to the reference compound clozapine. The potency of the test compound to reduce ^3H-spiperone binding directly correlated to its binding affinity for the receptor.
[…] (human embryonic kidney) cells stably transfected with human D4 receptor (D4.2 sub-type) were grown in NUNC cell factories for 5 days (75% confluency) without a media change and removed with versene (approximately 19 mg of cells per cell factory tray). The cells were then centrifuged in a Sorval centrifuge for 10 min, 5000 rpm (GS3 rotor) and the pellets quickly frozen in liquid nitrogen and stored at −80° C. until used in binding assay. When used in the assay, cells were thawed on ice for 20 min and then 10 mL of incubation buffer (50 mM Tris, 1 mM EDTA, 4 mM MgCl2, 5 mM KCl, 1.5 mM CaCl2, 120 mM NaCl, pH 7.4) was added. The cells were then vortexed to resuspend pellet and homogenized with a Kinematica, CH-6010 Kriens-LU, homogenizer for 15 seconds at setting 7. Concentration of receptor protein was determined using the Pierce BCA assay.
The incubation was started by the addition of 100 μl (50 μg protein) membrane homogenate to a solution of 300 μl incubation buffer and 100 μl (0.25 nM final conc.) ^3H-spiperone (90 Ci/mmol, Amersham, diluted in borosilicate glass vial) in 96-well polypropylene plates (1 mL per well). The plates were vortexed and incubated at room temperature for 90 minutes. The binding reaction was stopped by filtering using a Packard Harvester. The samples were filtered under vacuum over glass fibre filter plates (Whatman GF/B) presoaked for 2 hours in 0.3% polyethylenimine (PEI) in 50 mM Tris buffer (pH 7.4). The filters were then washed 6 times with 7 mL ice cold 50 mM Tris buffer (pH 7.4). The filter plates were dried overnight and 35 μl of Microscint-O (Packard) was added. The plates were sealed and counted in the Packard Top Count (3 minutes per well).
The incubation was started by the addition of 100 μl (50 μg protein) membrane homogenate to a solution of 200 μl incubation buffer, 100 μl ^3H-spiperone (90 Ci/mmol, Amersham, diluted in borosilicate glass vial to 0.25 nM final conc.) and 100 μl (30 μM final conc.) of fresh dopamine (Research Biochemicals Inc., light protected and dissolved in incubation buffer) in 96-well polypropylene plates (1 mL per well). The plates were vortexed and incubated at room temperature for 90 minutes at which time the binding reaction was stopped by filtering. The filters were washed and counted using the same procedure as in the total binding assay described above to give the non-specific binding value (NSB).
The incubation was started by the addition, in 96-well polypropylene plates (1 mL per well), of 100 μl (50 μg protein) membrane homogenate to a solution of 200 μl incubation buffer, 100 μl (0.25 nM final conc.) ^3H-spiperone (90 Ci/mmol, Amersham, diluted in borosilicate glass vial) and 100 μl of test compound that was prepared from 1 mM stock dissolved in DMSO and stored at −20° C. in polypropylene cryogenic storage vials until dilution in incubation buffer in 96-well polypropylene plates. The plates were vortexed and incubated at room temperature for 90 minutes at which time the binding reaction was stopped by filtering. The filters were washed and counted using the same procedure as in the total binding assay described above to give the displacement binding value (BD).
The test compounds were initially assayed at 1 and 0.1 μM and then at a range of concentrations chosen such that the middle dose would cause about 50% inhibition of ^3H-spiperone binding. Specific binding in the absence of test compound (B0) was the difference of total binding (BT) minus non-specific binding (NSB) and similarly specific binding (in the presence of test compound) (B) was the difference of displacement binding (BD) minus non-specific binding (NSB). […]
On to `Fc1ccc(CNCCCOc2cccc(-c3noc4ccsc34)c2)cc1` [Compound 3, (4-fluoro-benzyl)-[3-(3-thieno[2,3-d]isoxazol-3-yl-phenoxy)-propyl]-amine], for which the inhibitory constant (Ki) was determined as 17 nM. On the same count and under the same terms, next, `c1cc(OCCCNCc2ccsc2)cc(-c2noc3ccsc23)c1` [Compound 7, [3-(3-thieno[2,3-d]isoxazol-3-yl-phenoxy)-propyl]-thiophen-3-yl-methylamine]: 18 nM; `c1cnc(N2CCN(CCCOc3cccc(-c4noc5ccsc45)c3)CC2)nc1` [Compound 13, 3-{3-[3-(4-pyrimidin-2-yl-piperazin-1-yl)-propoxy]-phenyl}-thieno[2,3-d]isoxazole]: 55 nM. Same read-out and setting: next, `Fc1ccc(CNCCOc2cccc(-c3noc4ccsc34)c2)cc1` [Compound 17, (4-fluoro-benzyl)-[2-(3-thieno[2,3-d]isoxazol-3-yl-phenoxy)-ethyl]-amine]: 12 nM.

As for `c1cc(OCCNC2Cc3ccccc3C2)cc(-c2noc3ccsc23)c1` [Compound 46, indan-2-yl-[2-(3-thieno[2,3-d]isoxazol-3-yl-phenoxy)-ethyl]-amine hydrochloride], the Ki is 36.1 nM.

Turning to `c1cc(OCCNC23CC4CC(CC(C4)C2)C3)cc(-c2noc3ccsc23)c1` [Compound 47, adamantan-1-yl-[2-(3-thieno[2,3-d]isoxazol-3-yl-phenoxy)-ethyl]-amine], the Ki worked out at 23 nM.

Still in this experiment, the particulars now being: @ 1 μM test compound; 3H-spiperone binding; read-out: D4 RBA % Inhibition (@ 1 μM).
Consider `c1cc(OCCCNC2CCc3ccccc32)cc(-c2noc3ccsc23)c1` (stereo not drawn) [Compound 43], for which the inhibition at 1 µM was 94%. On the same count and under the same terms, under `c1cc(OCCCNC2Cc3ccccc3C2)cc(-c2noc3ccsc23)c1` [Compound 44, indan-2-yl-[3-(3-thieno[2,3-d]isoxazol-3-yl-phenoxy)-propyl]-amine] stands 96%; under `c1cc(OCCCN2CCc3ccccc3C2)cc(-c2noc3ccsc23)c1` [Compound 45, 2-[3-(3-thieno[2,3-d]isoxazol-3-yl-phenoxy)-propyl]-1,2,3,4-tetrahydroisoquinoline], 52%; under `c1cc(OCCN2CCCCC2)cc(-c2noc3ccsc23)c1` [Compound 48, 3-[3-(2-piperidin-1-yl-ethoxy)-phenyl]-thieno[2,3-d]isoxazole], 83%. On the same count and under the same terms, next, `Fc1ccc(CNCCOc2cccc(-c3noc4ccsc34)c2)c(F)c1` [Compound 49, (2,4-difluoro-benzyl)-[2-(3-thieno[2,3-d]isoxazol-3-yl-phenoxy)-ethyl]-amine]: 95%; `Fc1cccc(F)c1CNCCOc1cccc(-c2noc3ccsc23)c1` [Compound 50, (2,6-difluoro-benzyl)-[2-(3-thieno[2,3-d]isoxazol-3-yl-phenoxy)-ethyl]-amine]: 65%.

Regarding `FC(F)(F)c1ccccc1CNCCOc1cccc(-c2noc3ccsc23)c1` [Compound 51, [2-(3-thieno[2,3-d]isoxazol-3-yl-phenoxy)-ethyl]-(2-trifluoromethylbenzyl)-amine], the inhibition at 1 µM was 58%. Same read-out and setting: next, `FC(F)(F)c1ccc(CNCCOc2cccc(-c3noc4ccsc34)c2)cc1` [Compound 52, [2-(3-thieno[2,3-d]isoxazol-3-yl-phenoxy)-ethyl]-(4-trifluoromethylbenzyl)-amine]: 96%. Same read-out and setting: next, `c1cc(OCCCNC23CC4CC(CC(C4)C2)C3)cc(-c2noc3ccsc23)c1` [Compound 53, adamantan-1-yl-[3-(3-thieno[2,3-d]isoxazol-3-yl-phenoxy)-propyl]-amine]: 94%. With `c1cc(OCCCN2CCCCC2)cc(-c2noc3ccsc23)c1` [Compound 54, 3-[3-(3-piperidin-1-yl-propoxy)-phenyl]-thieno[2,3-d]isoxazole], the inhibition at 1 µM stood at 94%.

For `Fc1ccc(CNCCCOc2cccc(-c3noc4ccsc34)c2)c(F)c1` [Compound 55, (2,4-difluoro-benzyl)-[3-(3-thieno[2,3-d]isoxazol-3-yl-phenoxy)-propyl]-amine], the inhibition at 1 µM is 92%.

Turning to `Fc1cccc(F)c1CNCCCOc1cccc(-c2noc3ccsc23)c1` [Compound 56, (2,6-difluoro-benzyl)-[3-(3-thieno[2,3-d]isoxazol-3-yl-phenoxy)-propyl]-amine], the inhibition at 1 µM was 64%. With `FC(F)(F)c1ccccc1CNCCCOc1cccc(-c2noc3ccsc23)c1` [Compound 57, [3-(3-thieno[2,3-d]isoxazol-3-yl-phenoxy)-propyl]-(2-trifluoromethylbenzyl)-amine], the inhibition at 1 µM was found to be 46%. The same measure, in the same setting: under `FC(F)(F)c1ccc(CNCCCOc2cccc(-c3noc4ccsc34)c2)cc1` [Compound 58, [3-(3-thieno[2,3-d]isoxazol-3-yl-phenoxy)-propyl]-(4-trifluoromethylbenzyl)-amine] stands 77%.

Regarding `CC1CCN(CCOc2cccc(-c3noc4ccsc34)c2)CC1` [Compound 59, 3-{3-[2-(4-methyl-piperidin-1-yl)-ethoxy]-phenyl}-thieno[2,3-d]isoxazole], the inhibition at 1 µM was 90%. The same measure, in the same setting: next, `CCCC1CCN(CCOc2cccc(-c3noc4ccsc34)c2)CC1` [Compound 60, 3-{3-[2-(4-propyl-piperidin-1-yl)-ethoxy]-phenyl}-thieno[2,3-d]isoxazole]: 82%; `c1cc(OCCN2CCCC2)cc(-c2noc3ccsc23)c1` [Compound 61, 3-[3-(2-pyrrolidin-1-yl-ethoxy)-phenyl]-thieno[2,3-d]isoxazole]: 41%; `c1cc(OCCN2CCCCCC2)cc(-c2noc3ccsc23)c1` [Compound 62, 3-[3-(2-azepan-1-yl-ethoxy)-phenyl]-thieno[2,3-d]isoxazole]: 90%. Still for that read-out and setting: under `c1cc(OCCN2CCCCCCC2)cc(-c2noc3ccsc23)c1` [Compound 63, 3-[3-(2-azocan-1-yl-ethoxy)-phenyl]-thieno[2,3-d]isoxazole] stands 54%.

Another experiment has as its system CD-1 or C57 male mice (MK-801 induced stereotypy). As to the kind of experiment: MK-801 Stereotypy in Mice. It is filed as in vivo. The conditions noted are these: Mus musculus, PO, MK-801 stereotypy, read-out: In Vivo ED50. How it is done: Mk-801 dose-dependently induces characteristic stereotypy marked by locomotion and falling behavior. This MK-801 induced behavior can be antagonized by novel neuroleptic agents. This assay can also assess time course effects following drug administration.
CD-1 or C57 male mice are individually placed in activity boxes (8 mice/drug) and allowed to acclimate for 60 minutes. The mice are then administered test compounds either i.p., s.c., or p.o., at 15, 30, or 60 minutes prior to MK-801 (0.2 mg/kg) administration. Mice are observed for the presence of locomotion and falling behaviors 15 minutes following MK-801. For the duration of action studies the test compounds are administered i.p., s.c., or p.o., at 30, 60, 120, 180, and 240 minutes prior to MK-801 administration.
For the compound `Fc1ccc(CNCCOc2cccc(-c3noc4ccsc34)c2)cc1` [Compound 17, (4-fluoro-benzyl)-[2-(3-thieno[2,3-d]isoxazol-3-yl-phenoxy)-ethyl]-amine], the ED50 was 14.1 mg/kg.

The experiment is the same for the next values; noted with them: Mus musculus, ip, 20 mg/kg, read-out: Antag. of MK 801 Stereotypy % Inhib. @ 20 mg/kg.
Take `c1cnc(N2CCN(CCCOc3cccc(-c4noc5ccsc45)c3)CC2)nc1` [Compound 13, 3-{3-[3-(4-pyrimidin-2-yl-piperazin-1-yl)-propoxy]-phenyl}-thieno[2,3-d]isoxazole]: the inhibition in vivo at 20 mg/kg is 37.5%.

Staying with this experiment, now noted: Mus musculus, po, 20 mg/kg, read-out: Antag. of MK 801 Stereotypy % Inhib. @ 20 mg/kg.
Take `Fc1ccc(CNCCCOc2cccc(-c3noc4ccsc34)c2)cc1` [Compound 3, (4-fluoro-benzyl)-[3-(3-thieno[2,3-d]isoxazol-3-yl-phenoxy)-propyl]-amine]: the inhibition in vivo at 20 mg/kg came to 37.5%. Same read-out and setting: next, `c1cc(OCCCNCc2ccsc2)cc(-c2noc3ccsc23)c1` [Compound 7, [3-(3-thieno[2,3-d]isoxazol-3-yl-phenoxy)-propyl]-thiophen-3-yl-methylamine]: 75%; `Fc1ccc(CNCCOc2cccc(-c3noc4ccsc34)c2)cc1` [Compound 17, (4-fluoro-benzyl)-[2-(3-thieno[2,3-d]isoxazol-3-yl-phenoxy)-ethyl]-amine]: 62.5%.
